Laboratory results: article PMC5501099 (Malaria Journal, 2017)

Columns and labels:
[1] = single dose of 800 µg/kg, literature parameters of American healthy volunteers; cited from earlier work
An. gambiae [2] = system: An. gambiae; parameters: method as in PMID 20540931; conditions: cited from earlier work
An. gambiae [3] = conditions: ivermectin MDAs in Senegal at 150 µg/kg, for up to 6 days post MDA; cited from earlier work
P. falciparum = conditions: cited from earlier work
Anopheles dirus = assay: Effect of Plasmodium vivax infection on Anopheles dirus survivorship response to ivermectin; format: in vivo; conditions: ivermectin LC25 co-ingested with parasites on DPI 0 vs ivermectin LC25 only; 14 days
Source text: Anopheles dirus were fed a P. vivax blood meal or a non-infectious blood meal prepared from uninfected donor blood and serum was replaced as described above. […] After blood feeding, 50 blood fed females from each treatment group were transferred to a new 0.5-l cardboard carton. Mosquito survivorship was monitored daily and dead mosquitoes were removed from the containers until day 14 post blood meal. Any live mosquitoes at day 14 were frozen and counted as alive. A separate group of mosquitoes were fed a P. vivax control blood meal to ensure that the P. vivax sample was infectious to mosquitoes and only isolates that successfully infected at least 80% of An. dirus were included in the results.
A non-linear mixed effects model with probit analysis was used to calculate LC50, LC25 and LC5 values with Statistical Analysis Software (SAS Institute Inc, Cary, NC, USA) as described previously. Hazard ratios for mosquito mortality at day 7 post blood meal were calculated using Poisson regression analysis with STATA version 12.1 (StataCorp LLC, College Station, TX, USA). […] To determine if P. vivax infection altered mosquito survivorship post-ivermectin ingestion survival data were analysed by the Mantel–Cox method. The Fishers Exact, Mann–Whitney U, and survival analysis data were analysed with Prism 7 (GraphPad Software Inc, San Diego, CA, USA).

Plasmodium vivax = assay: Effect of ivermectin on Plasmodium vivax sporogony in Anopheles dirus; format: in vivo; conditions: An. dirus; for P. vivax oocyst prevalence reduced by: dissected day 7
Protocol: Mosquitoes reared in Bangkok were transported to a field laboratory at the Mae Sot Malaria Medical Clinic in Mae Sot, Tak Province. Plasmodium vivax-infected blood was collected from malaria-infected patients reporting to malaria clinics operated by the Thailand Ministry of Public Health in Tak Province (protocol WRAIR#1949A). Patient plasma was removed and replaced by centrifuging blood samples at 3000 rpm for 5 min, plasma removed and blood washed with RPMI twice, and malaria-naïve AB+ serum was added at a 50:50 ratio [30]. One millilitre of blood was fed to each group of 100 mosquitoes in 0.5-l cardboard containers and unfed mosquitoes were removed. Mosquitoes were maintained on 10% sucrose ad libitum at the Mae Sot field insectary (25 ± 1 °C and 70 ± 10% relative humidity, light 12 h:12 h dark photoperiod). Once infected with P. vivax, blood-fed mosquitoes were securely transported back to Bangkok and maintained in a separate insectary (25 ± 1 °C and 70 ± 10% relative humidity, light 12 h:12 h dark photoperiod).
Unfed mosquitoes were removed from the feeding containers after each blood meal. Mosquitoes from the DPI 0 and DPI −3 feeding schedules were dissected 7 days post parasite ingestion to enumerate oocysts. Midguts were dissected with minuten pins into saline on a microscope slide and stained with 0.4% mercurochrome and viewed at 40× magnification with a compound microscope to determine oocyst prevalence and intensity. Approximately 25 mosquitoes were dissected from each control and treatment group at each dissection time point. Dissectors were blinded to treatment groups. Due to lack of initial mosquito blood feeding and mosquitoes lost to experimental mortality and oocyst dissections at day 7 post parasite feeding, not enough mosquitoes remained at day 14 post parasite feeding to determine sporozoite prevalence for the DPI −3 and 0 experiments. Mosquitoes from the DPI 6 and 9 experiments were dissected 14 days post parasite ingestion to determine sporozoite prevalence. Salivary glands were dissected with minuten pins into saline on a microscope slide and viewed at 40× magnification to determine sporozoite prevalence.
A non-linear mixed effects model with probit analysis was used to calculate LC50, LC25 and LC5 values with Statistical Analysis Software (SAS Institute Inc, Cary, NC, USA) as described previously. Hazard ratios for mosquito mortality at day 7 post blood meal were calculated using Poisson regression analysis with STATA version 12.1 (StataCorp LLC, College Station, TX, USA). Oocyst and sporozoite prevalence (i.e. proportion of infected mosquitoes) was compared by Fishers Exact test. Oocyst intensity (i.e. number of oocysts per infected mosquito) was compared by the Mann–Whitney U test. To determine if P. vivax infection altered mosquito survivorship post-ivermectin ingestion survival data were analysed by the Mantel–Cox method. The Fishers Exact, Mann–Whitney U, and survival analysis data were analysed with Prism 7 (GraphPad Software Inc, San Diego, CA, USA).

[4] = cited from earlier work
An. dirus = assay: Anticoagulant effects on mosquito survival with ivermectin LC25; format: in vivo, Anopheles dirus; conditions: sodium heparin vs CPDA, 7 days
Protocol: Blood was drawn from a single donor and put directly into 10 ml sodium heparin tubes (NH) (158 USP units, BD Vacutainer, Franklin Lakes, NJ, USA) or 6ml CPDA Vacuette tubes (Greiner Bio-One, Kremsmϋnster, Austria) under protocol (Protocol WRAIR#2079).

[5] = ivermectin LC5 at DPI −3, not significant

For ivermectin, the “Simulated average peak concentration” value [1] is listed as 108.1 ng/mL, the “An. gambiae 5-day-LC50” value (An. gambiae [2]) is listed as 0.0224 µg/mL and the “An. gambiae 5-day survivorship reduced by” value (An. gambiae [3]) is listed as 43.6%. For the same substance, the “Effect on P. falciparum oocyst intensity in An. gambiae” value (P. falciparum; LC25 or LC5 at DPI 0) was “no effect”, the “Effect on oocyst prevalence of P. falciparum in An. gambiae” value (P. falciparum; ivermectin LC5 at DPI −3) was “reduced oocyst prevalence” and the “Sporontocidal effect for P. falciparum in An. gambiae” value (P. falciparum; ivermectin LC25 at DPI 6 and 9) was “significant sporontocidal effect”. The “Effect on P. falciparum prevalence in An. gambiae” value (P. falciparum; ivermectin LC25 ingested concomitantly (DPI 0)) was “significantly reduced”, the “Effect of P. vivax infection on survivorship of An. dirus that ingested ivermectin” value (Anopheles dirus) was “did not alter survivorship” and the “P. vivax oocyst prevalence reduced by” value (Plasmodium vivax; ivermectin LC5 (22.1 ng/ml) co-ingested at DPI 0) was 33.6%. For the same substance, the “P. vivax mean oocyst intensity reduced by” value (Plasmodium vivax; ivermectin LC5 at DPI 0) was 24.7%, the “P. vivax oocyst intensity increased by” value (Plasmodium vivax; [5]) was 24.2% and the “P. vivax oocyst prevalence decreased by” value (Plasmodium vivax; [5]) was 3.9%. The “P. vivax oocyst prevalence reduced by” value (Plasmodium vivax; ivermectin LC25 (38.1 ng/ml) co-ingested at DPI 0) was 44.7%, the “P. vivax mean oocyst intensity reduced by” value (Plasmodium vivax; ivermectin LC25 at DPI 0) was 51.2% and the “P. vivax sporozoite prevalence decreased by” value (Plasmodium vivax; ivermectin LC25 at DPI 6, dissected day 14, not significant) was 4.5%. For the same substance, the “P. vivax sporozoite prevalence increased by” value (Plasmodium vivax; ivermectin LC25 at DPI 9, dissected day 14, not significant) was 4.4%, the “Safety of repeated administration” value ([4]; 400 µg/kg every two weeks for 12 weeks, adults, Sri Lanka and Brazil) was “safe” and the Safety and tolerability ([4]; doses up to 2000 µg/kg, healthy volunteers) was “safe and well tolerated”. The “Effect of anticoagulant type on survivorship of An. dirus that ingested ivermectin” value (An. dirus) was “did not alter survivorship”.
